# From the text: The term “solubility” used herein in regard to water solubility includes cases where the sample completely dissolves in deionized water to form a homogeneous mixture, and cases where the sample is completely emulsified. Here, “completely” means that no mass of the sample remains in the deionized water.
Water solubility (g),Water solubility [g],Compound
20< g,–,"CCCCCCCCCCCC(=O)OCC(O)CO (stereo not drawn) [90-L2 Lauric acid monoglyceride, lauric acid monoglyceride]"
20< g,–,CC(C)CCCCCCCCCCCCCCCOC(=O)CC(O)C(=O)OCCCCCCCCCCCCCCCC(C)C (stereo not drawn) [Diisostearyl malate]
–,<0.05,"CCCCC(CC)C(=O)OCC(C)(C)COC(=O)C(CC)CCCC (stereo not drawn) [H-208BRS, Neopentyl glycol di(2-ethylhexanoate)]"
–,<0.05,CCCCC(CC)C(=O)OCC(COC(=O)C(CC)CCCC)OC(=O)C(CC)CCCC (stereo not drawn) [PANACET 800B]
–,<0.05,CCCCCCCC(=O)OCC(COC(=O)CCCCCCC)OC(=O)CCCCCCC [PANACET 800]
–,<0.05,CCCCOC(=O)CC(CC(=O)OCCCC)(OC(C)=O)C(=O)OCCCC [Tributyl O-acetylcitrate]
